Experimental findings from patent US20060189650A1, “Novel piperidine derivatives as modulators of chemokine receptor ccr5” (priority 2002, published 2006) are described below.

The test deals with recombinant human CCR5 receptor (Homo sapiens, UniProt P51681). In words: MIP-1α radioligand binding assay (scintillation proximity, CHO cell membranes). The conditions noted are these: negative log (base 10) of IC50, displacement of 0.1 nM iodinated MIP-1α; average if tested more than once. The method, then:
The ability of compounds to inhibit the binding of MIP-1α was assessed by an in vitro radioligand binding assay. Membranes were prepared from Chinese hamster ovary cells which expressed the recombinant human CCR5 receptor. These membranes were incubated with 0.1 nM iodinated MIP-1α, scintillation proximity beads and various concentrations of the compounds of the invention in 96-well plates. The amount of iodinated MIP-1α bound to the receptor was determined by scintillation counting. Competition curves were obtained for compounds and the concentration of compound which displaced 50% of bound iodinated MIP-1α was calculated (IC50).
In Table XV the results are presented as Pic50 values. A Pic50 value is the negative log (to base 10) of the IC50 result, so an IC50 of 1 μM (that is 1×10^−6M) gives a Pic50 of 6. If a compound was tested more than once then the data below is an average of the probative tests results.
For orientation: In a scintillation proximity assay essentially only radioactivity close to the scintillant gives light.

The structures appear in SMILES notation.

Chain of recombinant human CCR5 receptor (P51681 whole entry): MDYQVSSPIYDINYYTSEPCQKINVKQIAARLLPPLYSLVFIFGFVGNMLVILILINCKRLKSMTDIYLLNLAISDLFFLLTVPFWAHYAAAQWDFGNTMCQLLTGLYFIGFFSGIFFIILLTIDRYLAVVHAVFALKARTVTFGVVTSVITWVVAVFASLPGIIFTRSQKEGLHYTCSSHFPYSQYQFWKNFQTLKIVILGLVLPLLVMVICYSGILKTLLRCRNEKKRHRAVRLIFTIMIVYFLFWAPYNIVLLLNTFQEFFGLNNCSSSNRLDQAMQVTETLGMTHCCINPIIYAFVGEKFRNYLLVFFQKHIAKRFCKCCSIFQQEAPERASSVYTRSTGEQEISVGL

For orientation: IC50 means the concentration that gives 50% inhibition. Take `CS(=O)(=O)c1ccc([C@@H](CCN2CCC(CCS(=O)(=O)c3ccc(S(C)(=O)=O)cc3)CC2)c2cc(F)cc(F)c2)cc1` [Table V Compound 7, 1-{(3R)-3-(3,5-difluorophenyl)-3-[4-(methylsulfonyl)phenyl]propyl}-4-(2-{[4-(methylsulfonyl)phenyl]sulfonyl}ethyl)piperidine]: the IC50 is 0.631 nM. The result for `Cn1nnc(-c2ccc(S(=O)(=O)CCC3CCN(CC[C@H](c4ccc(S(C)(=O)=O)cc4)c4cc(F)cc(F)c4)CC3)cc2)n1` [Table V Compound 19, 1-{(3R)-3-(3,5-difluorophenyl)-3-[4-(methylsulfonyl)phenyl]propyl}-4-(2-{[4-(2-methyl-2H-tetrazol-5-yl)phenyl]sulfonyl}ethyl)piperidine] reads 2 nM.

With `CS(=O)(=O)c1ccc(S(=O)(=O)CCC2CCN(CC[C@H](NC(=O)c3ccc(Cl)cc3)c3ccccc3)CC2)cc1` [Table IV Compound 2], the IC50 is 1.58 nM.
